Test systems include ACHN renal; HCT-116 colon; MOLT-4 leukemia; OVCAR-5 ovarian; RPMI-8226 leukemia; SF-295 CNS; SR leukemia; SW-620 colon; TK-10 renal; UACC-62 melanoma.
What all share (assay): NCI tumour cell line growth inhibition, 48 h

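Method: 48-hour compound exposure of cells in 96-well plates, five concentrations, linear interpolation of endpoints. GI50 marks 50% less growth. The concentration for full growth arrest is given as TGI.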 A value given as a limit tells only on which side of the number the result lay.

Consider `NC1=C(Cl)C(=O)c2ccc(S(N)(=O)=O)cc2C1=O`, for which the GI50 in the assay on ACHN renal is 0.263 µM; with HCT-116 colon it was 0.224 µM; in the assay on MOLT-4 leukemia it was 0.515 µM; with OVCAR-5 ovarian, 0.251 µM; with RPMI-8226 leukemia it was 0.354 µM; with SF-295 CNS, 0.143 µM. For the same compound, the GI50 is 0.262 µM in the assay on SR leukemia, 0.293 µM in the assay on SW-620 colon, 1.56 µM in the assay on TK-10 renal and 0.135 µM in the assay with UACC-62 melanoma. In addition, the TGI was determined as 0.895 µM with ACHN renal; 0.602 µM in the assay on HCT-116 colon; 3.22 µM in the assay on MOLT-4 leukemia; 0.658 µM with OVCAR-5 ovarian; 2.04 µM in the assay on RPMI-8226 leukemia; 0.289 µM with SF-295 CNS. Moreover, the TGI in the assay on SR leukemia turned out to be 0.606 µM; in the assay with SW-620 colon, 0.89 µM; in the assay with TK-10 renal it was 2.95 µM; with UACC-62 melanoma, 0.273 µM.

For `O=C(O)C1NCCc2c1[nH]c1ccccc21` (configuration not stated), the GI50 in the assay on ACHN renal, with HCT-116 colon, in the assay on MOLT-4 leukemia, with SR leukemia, with SW-620 colon and in the assay on TK-10 renal was over 100 µM in each case. In the assay with UACC-62 melanoma, the GI50 is over 100 µM. Besides, the TGI in the assay on ACHN renal is over 100 µM; in the assay on HCT-116 colon it was over 100 µM; in the assay with MOLT-4 leukemia it was over 100 µM; in the assay with OVCAR-5 ovarian, over 100 µM; in the assay on RPMI-8226 leukemia it was over 10 µM; in the assay on SF-295 CNS, over 100 µM. Moreover, the TGI in the assay on SR leukemia, with SW-620 colon, with TK-10 renal and in the assay with UACC-62 melanoma was over 100 µM each time.

As for `COC(=O)C(C(=O)C(=O)NC1=C(Cl)C(=O)c2ccccc2C1=O)c1csc(-n2nc(-c3ccccc3)cc2-c2ccccc2)n1` (configuration not stated), the TGI with ACHN renal, in the assay with HCT-116 colon, in the assay on MOLT-4 leukemia, in the assay with OVCAR-5 ovarian, in the assay with RPMI-8226 leukemia and in the assay on SF-295 CNS was over 100 µM throughout. The TGI with SR leukemia, with SW-620 colon, with TK-10 renal and with UACC-62 melanoma was over 100 µM in each case.

Regarding `CN(C)CCCN(c1nc(C(Cl)(Cl)Cl)ns1)c1nc(C(Cl)(Cl)Cl)ns1`, the GI50 is 1.77 µM in the assay with ACHN renal; 1.66 µM with HCT-116 colon; 1.93 µM in the assay on MOLT-4 leukemia; 1.82 µM in the assay with OVCAR-5 ovarian; 2.19 µM in the assay with RPMI-8226 leukemia; 1.7 µM in the assay on SF-295 CNS. In addition, the GI50 is 1.49 µM in the assay on SR leukemia, 1.67 µM in the assay with SW-620 colon, 1.93 µM in the assay with TK-10 renal and 2.1 µM in the assay on UACC-62 melanoma. The TGI in the assay on ACHN renal turned out to be 3.53 µM; in the assay with HCT-116 colon, 3.34 µM; in the assay with MOLT-4 leukemia it was 4.23 µM; with OVCAR-5 ovarian it was 3.8 µM; with RPMI-8226 leukemia, 5.35 µM; in the assay with SF-295 CNS, 3.6 µM. Also, the TGI in the assay on SR leukemia amounted to 3.53 µM; with SW-620 colon, 3.18 µM; in the assay on TK-10 renal, 3.58 µM; with UACC-62 melanoma, 4.91 µM.

Regarding `COc1ccc(-c2cnc3ccnn3c2-c2cc(OC)c(OC)c(OC)c2)cc1`, the GI50 was 6.19 µM in the assay on ACHN renal; 2.97 µM in the assay with HCT-116 colon; 4.62 µM with MOLT-4 leukemia; 4.42 µM in the assay on OVCAR-5 ovarian; 4.14 µM in the assay on RPMI-8226 leukemia; 1.93 µM with SF-295 CNS. Besides, the GI50 was 1.66 µM in the assay on SR leukemia, 2.36 µM with SW-620 colon, 27.3 µM with TK-10 renal and 2.15 µM in the assay with UACC-62 melanoma. Besides, the TGI in the assay with ACHN renal is over 100 µM; in the assay on HCT-116 colon, over 100 µM; with MOLT-4 leukemia, over 100 µM; in the assay with OVCAR-5 ovarian, over 100 µM; in the assay on RPMI-8226 leukemia it was over 100 µM; in the assay on SF-295 CNS, 20 µM. The TGI in the assay with SR leukemia, in the assay on SW-620 colon, in the assay on TK-10 renal and in the assay on UACC-62 melanoma was over 100 µM throughout.

With `NC(=O)N/N=C(\C(=O)C(=O)Nc1ccc(Cl)c(C(F)(F)F)c1)c1nc2ccc(C(=O)c3ccccc3)cc2[nH]c1=O`, the TGI in the assay with ACHN renal, in the assay with HCT-116 colon, in the assay with MOLT-4 leukemia, with OVCAR-5 ovarian, in the assay on RPMI-8226 leukemia and with SF-295 CNS was over 100 µM each time. The TGI with SR leukemia, in the assay on SW-620 colon, with TK-10 renal and in the assay with UACC-62 melanoma was over 100 µM each time.

For the compound `c1cc(OCCN2CCCCCC2)ccc1CNc1ccc2nc(CCC3CCCCC3)[nH]c2c1`, the GI50 in the assay with ACHN renal was 2.68 µM; in the assay with HCT-116 colon, 1.62 µM; in the assay with MOLT-4 leukemia, 1.69 µM; in the assay with OVCAR-5 ovarian it was 2.48 µM; with RPMI-8226 leukemia it was 1.5 µM; with SF-295 CNS it was 1.94 µM. Also, the GI50 was 1.73 µM with SR leukemia, 1.87 µM in the assay with SW-620 colon, 3.18 µM with TK-10 renal and 1.84 µM with UACC-62 melanoma. The TGI amounted to 7.97 µM in the assay on ACHN renal; 3.14 µM in the assay with HCT-116 colon; 6.74 µM in the assay on MOLT-4 leukemia; 7.33 µM in the assay on OVCAR-5 ovarian; 3.79 µM in the assay with RPMI-8226 leukemia; 3.82 µM in the assay on SF-295 CNS. Further, the TGI with SR leukemia is 5.34 µM; in the assay on SW-620 colon it was 4 µM; in the assay with TK-10 renal, 10.9 µM; in the assay with UACC-62 melanoma it was 3.35 µM.

On to `CCC(C)OC(=O)C1C2CCC(O2)C1C(=O)O` (configuration not stated), for which the TGI in the assay on ACHN renal was over 100 µM; with HCT-116 colon it was over 56.3 µM; with MOLT-4 leukemia, over 100 µM; with OVCAR-5 ovarian, over 100 µM; with RPMI-8226 leukemia it was over 68.7 µM; in the assay on SF-295 CNS, over 100 µM. The TGI in the assay on SR leukemia was 40.3 µM; with SW-620 colon, over 32.1 µM; in the assay on TK-10 renal, over 100 µM; with UACC-62 melanoma, over 100 µM.

For `Cc1cccc2c(N=Nc3ccc(S(N)(=O)=O)cc3)c(O)[nH]c12`, the GI50 in the assay on ACHN renal, in the assay on HCT-116 colon, in the assay on MOLT-4 leukemia, with OVCAR-5 ovarian, in the assay with RPMI-8226 leukemia and with SF-295 CNS was over 25 µM each time. Moreover, the GI50 with SR leukemia, with SW-620 colon, in the assay with TK-10 renal and in the assay on UACC-62 melanoma was over 25 µM each time. Besides, the TGI in the assay on ACHN renal, with HCT-116 colon, with MOLT-4 leukemia, in the assay on OVCAR-5 ovarian, in the assay on RPMI-8226 leukemia and in the assay with SF-295 CNS was over 25 µM throughout. The TGI with SR leukemia, in the assay with SW-620 colon, in the assay with TK-10 renal and in the assay with UACC-62 melanoma was over 25 µM throughout.

For the origin of these results see PubChem BioAssay (NCI).
